How the values were obtained:
Type in all cases: in vivo
Abutilon theophrasti [1] = test: Weeding effect in post-emergence stage; details: Dose 15 g/ha; fresh weight control rate level
Procedure, shortened: (§1)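 Seeds are sown in soil-filled pots under 0.5-2 cm soil and grown 2 weeks in greenhouse. Plants at 2-3 leaves are sprayed with compound (acetone, Tween 80, 1.5 liter/ha methyl oleate EC, water) at 7.5 to 500 g/ha. Damage is rated 3 weeks later, averaging three repeats.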

Eleusine indica = test: Weeding effect in post-emergence stage; details: Dose 15 g/ha; fresh weight control rate level
Procedure, shortened: as §1

Digitaria sanguinalis = test: Weeding effect in post-emergence stage; details: Dose 15 g/ha; fresh weight control rate level
Procedure, shortened: as §1

Alopecurus japonicus = test: Weeding effect in post-emergence stage; details: Dose 15 g/ha; fresh weight control rate level
Procedure, shortened: as §1

Setaria viridis [2] = test: Weeding effect in post-emergence stage; details: Dose 15 g/ha; fresh weight control rate level
Procedure, shortened: as §1

Echinochloa crusgalli = test: Weeding effect in post-emergence stage; details: Dose 15 g/ha; fresh weight control rate level
Procedure, shortened: as §1

Peanut = test: Pre-emergence stage, crop selectivity; details: 30 g/ha, 4 weeks
Procedure, shortened: (§2)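 Test compounds were dissolved in acetone with tween 80, diluted with water and sprayed right after sowing, with seeds covered by 0.5-2 cm of soil. Rates were 500 to 7.5 g/ha. Growth control was scored against activity-level criteria after 4 weeks in the greenhouse.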

corn = test: Pre-emergence stage, crop selectivity; details: 30 g/ha, 4 weeks
Procedure, shortened: as §2

Soybeans = test: Pre-emergence stage, crop selectivity; details: 30 g/ha, 4 weeks
Procedure, shortened: as §2

cotton = test: Pre-emergence stage, crop selectivity; details: 30 g/ha, 4 weeks
Procedure, shortened: as §2

Descurainia sophia = test: Weeding effect in pre-emergence stage; details: 30 g/ha, 4 weeks
Procedure, shortened: as §2

Abutilon theophrasti [3] = test: Weeding effect in pre-emergence stage; details: 30 g/ha, 4 weeks
Procedure, shortened: as §2

Amaranthus retroflexus = test: Weeding effect in pre-emergence stage; details: 30 g/ha, 4 weeks
Procedure, shortened: as §2

Capsella bursa-pastoris = test: Weeding effect in pre-emergence stage; details: 30 g/ha, 4 weeks
Procedure, shortened: as §2

Veronica didyma Tenore = test: Weeding effect in pre-emergence stage; details: 30 g/ha, 4 weeks
Procedure, shortened: as §2

Setaria viridis [4] = test: Weeding effect in pre-emergence stage; details: 30 g/ha, 4 weeks
Procedure, shortened: as §2

SMILES | Weeding effect in post-emergence stage, Abutilon theophrasti (level) (Abutilon theophrasti [1]) | Weeding effect in post-emergence stage, Eleusine indica (level) (Eleusine indica) | Weeding effect in post-emergence stage, Digitaria sanguinalis (level) (Digitaria sanguinalis) | Weeding effect in post-emergence stage, Alopecurus japonicus (level) (Alopecurus japonicus) | Weeding effect in post-emergence stage, Setaria viridis (level) (Setaria viridis [2]) | Weeding effect in post-emergence stage, Echinochloa crusgalli (level) (Echinochloa crusgalli) | plant damage level Peanut (Peanut) | plant damage level Corn (corn) | plant damage level Soybeans (Soybeans) | plant damage level Cotton (cotton) | activity level (growth control rate) Descurainia sophia (Descurainia sophia) | activity level (growth control rate) Abutilon theophrasti (Abutilon theophrasti [3]) | activity level (growth control rate) Amaranthus retroflexus (Amaranthus retroflexus) | activity level (growth control rate) Capsella bursa-pastoris (Capsella bursa-pastoris) | activity level (growth control rate) Veronica didyma Tenore (Veronica didyma Tenore) | activity level (growth control rate) Setaria viridis (Setaria viridis [4])
CCSC(=O)[C@@H](C)O/N=C/c1cc(-n2c(=O)cc(C(F)(F)F)n(C)c2=O)c(F)cc1Cl [398(R)] | 5 (Level 5: growth control rate is above 85%) | 5 (Level 5: growth control rate is above 85%) | 5 (Level 5: growth control rate is above 85%) | 5 (Level 5: growth control rate is above 85%) | 5 (Level 5: growth control rate is above 85%) | 5 (Level 5: growth control rate is above 85%) | 0 (Level 0: growth control rate is less than 5%) | 0 (Level 0: growth control rate is less than 5%) | 0 (Level 0: growth control rate is less than 5%) | 0 (Level 0: growth control rate is less than 5%) | 5 (Level 5: growth control rate is above 85%) | 5 (Level 5: growth control rate is above 85%) | 5 (Level 5: growth control rate is above 85%) | 5 (Level 5: growth control rate is above 85%) | 5 (Level 5: growth control rate is above 85%) | 5 (Level 5: growth control rate is above 85%)
COC(=O)[C@@H](C)O/N=C/c1cc(-n2c(=O)c(Cl)c(C(F)(F)F)n(C)c2=O)c(F)cc1Cl [431(R)] | 5 (Level 5: growth control rate is above 85%) | 5 (Level 5: growth control rate is above 85%) | 5 (Level 5: growth control rate is above 85%) | 5 (Level 5: growth control rate is above 85%) | 5 (Level 5: growth control rate is above 85%) | 5 (Level 5: growth control rate is above 85%) | 0 (Level 0: growth control rate is less than 5%) | 0 (Level 0: growth control rate is less than 5%) | 0 (Level 0: growth control rate is less than 5%) | 0 (Level 0: growth control rate is less than 5%) | 5 (Level 5: growth control rate is above 85%) | 5 (Level 5: growth control rate is above 85%) | 5 (Level 5: growth control rate is above 85%) | 5 (Level 5: growth control rate is above 85%) | 5 (Level 5: growth control rate is above 85%) | 5 (Level 5: growth control rate is above 85%)

From patent publication US20230111310A1, “CARBOXYLIC ACID DERIVATIVE-SUBSTITUTED IMINO ARYL COMPOUND, PREPARATION METHOD THEREFOR, HERBICIDAL COMPOSITION AND USE THEREOF” (Qingdao Kingagroot Chemical Compound Co., Ltd., priority 2020, published 2023)
